From PMC6482291, “Anticonvulsant Activity of Pterostilbene in Zebrafish and Mouse Acute Seizure Tests” (Neurochemical Research, 2019)

Tests used:
mice [1] = assay: Chimney test; format: in vivo; conditions: for Impairment of motor coordination (percentage of animals): 30 min before test
Method: The chimney test was performed to evaluate influence of PTE on motor coordination in mice. During the test mice had to climb backwards up the plastic transparent cylinder (inner diameter 3 cm and length 30 cm) with gravelly inside. The inability of mice to escape from the cylinder within 60 s was considered as an motor impairment. Results obtained in the test were presented as percent of impaired mice in groups of 10–12 animals and were compared with the Fisher’s exact probability test.

zebrafish larvae = assay: Toxicological assessment (maximum tolerated concentration) in zebrafish larvae; format: in vivo, Danio rerio; conditions: 4 dpf larvae, scored after 2 and 18 h of exposure; highest concentration without death or signs of toxicity
Method: Maximum tolerated concentration (MTC) was evaluated prior to further experiments. Briefly, 4 dpf zebrafish larvae (n = 12/group) were incubated with a range of PTE doses at 28.5 °C, for 18 h. The following parameters were scored after 2 and 18 h of exposure: touch response, posture, edema, morphology, signs of necrosis, swim bladder and heartbeat.

[2] = test system: 6 Hz-induced psychomotor seizures in mice; assay: 6 Hz psychomotor seizure test with supramaximal stimulation (32 and 44 mA); format: in vivo; conditions: Mus musculus, ip, 30 min before test
Excerpt: Psychomotor (limbic) seizures were induced by transcorneal stimulation (6 Hz, 0.2 ms rectangular pulse, 3 s duration) generated by a Grass S48 stimulator coupled with a constant current unit CCU1 (both from Grass Technologies, West Warwick, RI, USA). Before stimulation a drop of ocular anesthetic, 1% tetracaine hydrochloride solution, was applied into the animals’ corneas. The electrodes were soaked in saline to ensure the good electrical contact. During the stimulation animals were restrained manually and immediately after the stimulation were placed in a Plexiglas box for observation of presence or absence of the psychomotor seizures. These seizures were characterized by immobilization or stun, often associated with rearing, forelimb clonus, twitching of vibrissae and elevated tail (Straub-tail), lasting at least 10 s from the stimulation. Lack of the above symptoms or their cessation within 10 s from the stimulation was considered as absence of seizure activity.
In the present study two 6 Hz-induced psychomotor seizure tests were performed: (1) the 6 Hz psychomotor seizure threshold test which employed stimulation at varied current intensities, and (2) the 6 Hz psychomotor seizure test with supramaximal stimulation at 32 mA and 44 mA. […]

[3] = test system: maximal electroshock seizures in mice; assay: Maximal electroshock seizure threshold (MEST) test; format: in vivo; conditions: for CS50 (seizure threshold): 30 min before test, 95% confidence limits in brackets
Excerpt: Seizures in the MEST test were evoked by applying a sine-wave alternating current (maximal output voltage 500 V, 50 Hz for 0.2 s) generated by constant current stimulator (Rodent Shocker, Type 221, Hugo Sachs Elektronik, Freiburg, Germany). The stimulation was delivered by saline-socked transcorneal electrodes. Before the stimulation 1% solution of tetracaine hydrochloride was applied into animals’ eyes for local anesthesia. During the stimulation animals were restrained manually and immediately after the stimulation they were placed in the Plexiglas box for observation. The endpoint evaluated in the test was the maximal electroconvulsion which was defined as extension of the hindlimbs above a 90° angle to the torso of animal.
The threshold for maximal electroshock was determined according to the up-and-down method described by Kimball et al.. The mice in the experimental group were subjected to the stimuli with different current intensities (range of 8–30 mA) which changes in 0.06-log steps. If stimulated mouse respond with seizures, the next mouse in the group was stimulated with current of intensity 0.06-log step lower than the previous one. […] Groups of 20 stimulated animals were used to calculate the threshold current strength (CS50 in mA; the current strength which induces tonic hindlimb extension in 50% of the tested animals) with SEM.
CS50 values were compared with one-way ANOVA followed by the Tukey’s multiple comparison test.

mice [4] = assay: Grip-strength test; format: in vivo; conditions: for Neuromuscular strength: 30 min before test
Method: The acute effect of PTE on the skeletal muscles strength in mice was determined in the grip strength test. The apparatus for this test (BioSeb, Chaville, France) consisted of a steel wire grid (8 × 8 cm) connected to an isometric force transducer. Each mouse was lifted by tail and allowed to grasp the grid with its forepaws and then it was gently pulled backward until its released the grid. The maximal force in newtons (N) exerted by mouse before leaving the grid was recorded. The mean of three consecutive measurements for each animal was calculated and normalized to body weight (mN/g).
Experimental groups consisted of 12 animals. Results obtained in the grip-strength test were compared using one-way ANOVA followed by the Tukey’s post-hoc multiple comparison test.

## COc1cc(/C=C/c2ccc(O)cc2)cc(OC)c1 [PTE, trans-3,5-dimethoxy-4′-hydroxy-trans-stilbene]
Mice [1]; PTE 50 mg/kg ip
  Impairment of motor coordination (percentage of animals): 0%
Mice [1]; PTE 100 mg/kg ip
  Impairment of motor coordination (percentage of animals): 0%
Mice [1]; PTE 400 mg/kg ip
  Impairment of motor coordination (percentage of animals): 0%
Mice [1]; PTE 600 mg/kg ip
  Impairment of motor coordination (percentage of animals): 0%
Mice [1]; PTE 50–800 mg/kg ip
  influence on motor coordination: did not significantly influence
Zebrafish larvae
  Maximum tolerated concentration (MTC): 10 µM
[2]; current intensity 32 mA
  ED50: 506 ± 44.7 mg/kg
[2]; current intensity 44 mA
  ED50: 541 ± 41.5 mg/kg
[3]; PTE 100 mg/kg ip
  CS50 (seizure threshold): 11.40 (10.93–11.87) mA
[3]; PTE 200 mg/kg ip
  CS50 (seizure threshold): 16.22 (14.80–17.78) mA
[3]; PTE 200 mg/kg ip, p < 0.001
  increase of seizure threshold vs negative control: over 70%
[3]; PTE 200 mg/kg ip, p < 0.05
  seizure threshold higher than in VPA-treated group (150 mg/kg): 15%
Mice [4]; PTE 50 mg/kg ip
  Neuromuscular strength: 30.34 ± 1.16 mN/g
Mice [4]; PTE 100 mg/kg ip
  Neuromuscular strength: 29.14 ± 0.95 mN/g
Mice [4]; PTE 200 mg/kg ip
  Neuromuscular strength: 28.76 ± 2.16 mN/g
Mice [4]; PTE 400 mg/kg ip
  Neuromuscular strength: 30.39 ± 2.17 mN/g
Mice [4]; PTE 600 mg/kg ip
  Neuromuscular strength: 30.19 ± 0.97 mN/g
Mice [4]; PTE 800 mg/kg ip
  Neuromuscular strength: 31.12 ± 1.44 mN/g
Mice [4]; PTE 50 to 800 mg/kg ip
  influence on muscular strength: did not significantly influence
